Experimental data reported in patent US20080069785A1, “PEST-CONTROL COMPOSITIONS, AND METHODS AND PRODUCTS UTILIZING SAME” (priority 2004, published 2008).
Several values for one entry are separate records, joined by “and”; a condition that tells them apart may be missing. Equal values may be shown once.

What was measured:
[1] = system: adult German cockroaches, Blattella germanica; test: Direct application toxicity test, comparison of insecticides including BioUD 10 (Table 23); type: in vivo; settings: 10 μL; adult female (F); individual cockroaches
Description: Ten μL of BioUD™10, pure Undecanone, or Raid® were separately applied to the backs (thorax and wings) of adult German cockroaches, Blattella germanica. Insects were separately placed into FLUON®-treated diet cups (Vol.=30 mL, lower diam.=3 cm, height=4 cm) to prevent escape of treated specimens.

[2] = system: Eastern subterranean termite, Reticulitermes flavipes; test: Termite direct application test (Example 20); type: in vivo; settings: 1 uL onto the back or thorax
Description: In this test, in addition to water as a negative control, a positive control, in the form of the commercially available pesticide Raid® in also included. The method in this test simply involved pippetting 1 uL of the formulation onto the back or thorax of the Eastern subterranean termite, Reticulitermes flavipes, and recording the time to death. This test was performed on Mar. 13, 2007. The formulations used in the test were: (a) Raid®, a commercially available pesticide, (b) Undecanone, (c) BioUD™10, (d) BioUD™5, (e) Soy Methyl Ester (SME), and (f) water as a negative control.

Question: For `CCCCCCCCCC(C)=O` [Undecanone, 2-Undecanone], which Time-to-death [1] is on record?
Answer: Its Time-to-death is 47 s and 46 s and 1200 s and 57 s.

Question: What about the “Time-to-death (sec), mean” value [2] of the same molecule?
Answer: Its value is 171.5 s.

Question: And the “Time-to-death” value ([2]; individual termite)?
Answer: The value was 157 s and 389 s and 68 s and 174 s and 146 s.
